Source: US20210070748A1, “INHIBITORS OF BRUTONS TYROSINE KINASE” (Pharmacyclics LLC, priority 2015, published 2021)

Tests used:
ITK = target: T1, ITK (Homo sapiens, UniProt Q08881); assay: Inhibition of a panel of kinases, in vitro HotSpot kinase assay: ITK; type: biochemical; details: D-compounds panel data; 1 μM ATP
T1 sequence (Q08881 1-620): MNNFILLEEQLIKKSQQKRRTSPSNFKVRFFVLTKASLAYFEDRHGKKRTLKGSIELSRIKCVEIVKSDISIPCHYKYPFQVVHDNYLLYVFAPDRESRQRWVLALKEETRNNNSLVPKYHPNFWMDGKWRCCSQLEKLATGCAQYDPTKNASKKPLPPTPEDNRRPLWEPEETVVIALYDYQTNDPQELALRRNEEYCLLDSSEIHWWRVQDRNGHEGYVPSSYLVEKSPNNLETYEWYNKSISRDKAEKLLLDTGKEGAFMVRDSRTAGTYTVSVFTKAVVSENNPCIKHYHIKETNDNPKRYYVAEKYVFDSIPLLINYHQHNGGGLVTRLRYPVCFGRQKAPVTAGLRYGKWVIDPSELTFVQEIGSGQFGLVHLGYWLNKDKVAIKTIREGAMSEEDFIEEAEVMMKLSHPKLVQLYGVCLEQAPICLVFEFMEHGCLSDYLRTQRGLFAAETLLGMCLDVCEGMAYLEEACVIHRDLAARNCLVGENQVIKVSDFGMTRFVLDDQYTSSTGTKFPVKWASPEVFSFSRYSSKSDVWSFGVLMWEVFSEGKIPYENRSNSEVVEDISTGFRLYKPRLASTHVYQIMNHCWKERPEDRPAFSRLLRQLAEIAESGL
Protocol: (§1) The degree of inhibition of a panel of kinases is determined using the in vitro HotSpot kinase assay (purified enzymes, ^33P-ATP, an appropriate substrate and 1 μM ATP).

TEC = target: T2, TEC (Homo sapiens, UniProt P42680); assay: Inhibition of a panel of kinases, in vitro HotSpot kinase assay: TEC; type: biochemical; details: D-compounds panel data; 1 μM ATP
T2 sequence (P42680 1-631): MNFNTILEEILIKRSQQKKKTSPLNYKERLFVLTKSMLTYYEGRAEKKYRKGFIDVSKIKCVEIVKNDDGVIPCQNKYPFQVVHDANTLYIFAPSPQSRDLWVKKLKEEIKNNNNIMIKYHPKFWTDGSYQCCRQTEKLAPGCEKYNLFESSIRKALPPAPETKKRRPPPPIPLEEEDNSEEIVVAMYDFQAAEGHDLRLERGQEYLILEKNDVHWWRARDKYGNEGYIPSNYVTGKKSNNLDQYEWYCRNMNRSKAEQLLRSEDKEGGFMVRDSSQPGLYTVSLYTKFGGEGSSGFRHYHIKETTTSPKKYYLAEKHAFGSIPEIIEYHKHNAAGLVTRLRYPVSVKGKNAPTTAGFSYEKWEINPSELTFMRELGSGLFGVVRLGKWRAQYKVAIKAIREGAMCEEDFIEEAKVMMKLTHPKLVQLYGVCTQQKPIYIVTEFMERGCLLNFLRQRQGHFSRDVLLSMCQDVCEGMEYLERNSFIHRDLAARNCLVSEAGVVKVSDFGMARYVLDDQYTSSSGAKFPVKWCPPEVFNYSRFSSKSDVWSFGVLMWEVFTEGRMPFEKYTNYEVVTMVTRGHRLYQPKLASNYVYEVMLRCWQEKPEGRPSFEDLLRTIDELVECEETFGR
Protocol: as §1

Structure (SMILES)	IC50 (ITK) [µM]	IC50 (TEC) [µM]
C[C@@H]1CC[C@H](NC(=O)N(C)C)CN1c1cnc(C(N)=O)c(Nc2cnn(C)c2)n1 [Example D-151, 5-[(2R,5S)-5-[(dimethylcarbamoyl)amino]-2-methylpiperidin-1-yl]-3-[(1-methyl-1H-pyrazol-4-yl)amino]pyrazine-2-carboxamide]	1 to 10	0.01 to 0.1
C[C@@H]1[C@H](NC(=O)c2ccc(C3CC3)cc2F)CCCN1c1cnc(C(N)=O)c(Nc2ccn(C)n2)n1 [Example D-129, 5-[(2R,3R)-3-(4-cyclopropyl-2-fluorobenzamido)-2-methylpiperidin-1-yl]-3-[(1-methyl-1H-pyrazol-3-yl)amino]pyrazine-2-carboxamide]	> 10	> 10
C[C@@H]1[C@H](NC(=O)N(C)C)CCCN1c1cnc(C(N)=O)c(Nc2ccc(CN3CCN(C)CC3)cc2)c1 [Example D-120, 5-[(2R,3R)-3-[(dimethylcarbamoyl)amino]-2-methylpiperidin-1-yl]-3-({4-[(4-methylpiperazin-1-yl)methyl]phenyl}amino)pyridine-2-carboxamide]	1 to 10	> 10
C[C@@H]1[C@H](NC(=O)c2ccc(C3CC3)cc2)CCCN1c1cnc(C(N)=O)c(Nc2ccc(C3(C)CCN(C4CCCC4)CC3)cc2)n1 [Example D-112, 3-{[4-(1-cyclopentyl-4-methylpiperidin-4-yl)phenyl]amino}-5-[(2R,3R)-3-(4-cyclopropylbenzamido)-2-methylpiperidin-1-yl]pyrazine-2-carboxamide]	0.01 to 0.1	≤ 0.01
C[C@@H]1CC[C@H](NC(=O)c2ccc(C3CC3)cc2)CN1c1cnc(C(N)=O)c(Nc2cnn(C)c2)n1 [Example D-145, 5-[(2R,5S)-5-(4-cyclopropylbenzamido)-2-methylpiperidin-1-yl]-3-[(1-methyl-1H-pyrazol-4-yl)amino]pyrazine-2-carboxamide]	> 10	1 to 10
Cc1cc(Nc2nc(N3CCC[C@@H](n4ccc5cc(C6CC6)ccc5c4=O)C3)cnc2C(N)=O)sn1 [Example D-166, 5-[(3R)-3-(6-cyclopropyl-1-oxo-1,2-dihydroisoquinolin-2-yl)piperidin-1-yl]-3-[(3-methyl-1,2-thiazol-5-yl)amino]pyrazine-2-carboxamide]	> 10	> 10
NC(=O)c1ncc(N2CCC[C@@H](n3ccc4cc(C5CC5)ccc4c3=O)C2)nc1Nc1ccc2ncccc2c1 [Example D-168, 5-[(3R)-3-(6-cyclopropyl-1-oxo-1,2-dihydroisoquinolin-2-yl)piperidin-1-yl]-3-[(quinolin-6-yl)amino]pyrazine-2-carboxamide]	> 10	0.1 to 1
C[C@@H]1[C@H](NC(=O)c2ccc(C3CC3)cc2F)CCCN1c1cnc(C(N)=O)c(Nc2ccc(N3CCN(C)CC3)cn2)n1 [Example D-8, 5-[(2R,3R)-3-(4-cyclopropyl-2-fluorobenzamido)-2-methylpiperidin-1-yl]-3-{[5-(4-methylpiperazin-1-yl)pyridin-2-yl]amino}pyrazine-2-carboxamide]	> 10	1 to 10
C[C@@H]1[C@H](NC(=O)c2ccc(C3CC3)cc2F)CCCN1c1cnc(C(N)=O)c(Nc2ccc(CN3CCN(C)CC3)cn2)n1 [Example D-132, 5-[(2R,3R)-3-(4-cyclopropyl-2-fluorobenzamido)-2-methylpiperidin-1-yl]-3-({5-[(4-methylpiperazin-1-yl)methyl]pyridin-2-yl}amino)pyrazine-2-carboxamide]	1 to 10	1 to 10
C[C@@H]1[C@H](NC(=O)c2ccc(C3CC3)cc2F)CCCN1c1cnc(C(N)=O)c(Nc2ccc(C3(C)CCN(C4CCC4)CC3)cc2)n1 [Example D-134, 3-{[4-(1-cyclobutyl-4-methylpiperidin-4-yl)phenyl]amino}-5-[(2R,3R)-3-(4-cyclopropyl-2-fluorobenzamido)-2-methylpiperidin-1-yl]pyrazine-2-carboxamide]	0.01 to 0.1	0.01 to 0.1
C[C@@H]1[C@H](NC(=O)c2ccc(C3CC3)cc2F)CCCN1c1cnc(C(N)=O)c(Nc2ccc(N3CCN(C)CC3)cc2)c1 [Example D-126, 5-[(2R,3R)-3-(4-cyclopropyl-2-fluorobenzamido)-2-methylpiperidin-1-yl]-3-{[4-(4-methylpiperazin-1-yl)phenyl]amino}pyridine-2-carboxamide]	1 to 10	1 to 10

More lines, now with the values ahead:

IC50 (ITK) [µM]	IC50 (TEC) [µM]	Structure (SMILES)
1 to 10	0.01 to 0.1	C[C@H]1CC[C@@H](NC(=O)c2ccc(C3CC3)cc2)CN1c1cnc(C(N)=O)c(Nc2cnn(C)c2)n1 [Example D-142, 5-[(2S,5R)-5-(4-cyclopropylbenzamido)-2-methylpiperidin-1-yl]-3-[(1-methyl-1H-pyrazol-4-yl)amino]pyrazine-2-carboxamide]
0.1 to 1	0.1 to 1	C[C@@H]1[C@H](NC(=O)c2ccc(C3CC3)cc2)CCCN1c1cnc(C(N)=O)c(Nc2ccc(N3CCN(C)CC3)cc2F)n1 [Example D-103, 5-[(2R,3R)-3-(4-cyclopropylbenzamido)-2-methylpiperidin-1-yl]-3-{[2-fluoro-4-(4-methylpiperazin-1-yl)phenyl]amino}pyrazine-2-carboxamide]
0.1 to 1	0.01 to 0.1	C[C@@H]1[C@H](NC(=O)c2ccc(C3CC3)cc2F)CCCN1c1cnc(C(N)=O)c(Nc2cc(CN(C)C)ns2)n1 [Example D-122, 5-[(2R,3R)-3-(4-cyclopropyl-2-fluorobenzamido)-2-methylpiperidin-1-yl]-3-({3-[(dimethylamino)methyl]-1,2-thiazol-5-yl}amino)pyrazine-2-carboxamide]
0.1 to 1	0.01 to 0.1	CN(C)c1ccc2c(=O)n([C@@H]3CCCN(c4cnc(C(N)=O)c(Nc5cnn(C)c5)n4)C3)ccc2c1 [Example D-155, 5-[(3R)-3-[6-(dimethylamino)-1-oxo-1,2-dihydroisoquinolin-2-yl]piperidin-1-yl]-3-[(1-methyl-1H-pyrazol-4-yl)amino]pyrazine-2-carboxamide]
0.1 to 1	≤ 0.01	C[C@@H]1[C@H](NC(=O)c2ccc(C(C)(C)O)c(F)c2)CCCN1c1cnc(C(N)=O)c(Nc2cnn(C)c2)n1 [Example D-160, 5-[(2R,3R)-3-[3-fluoro-4-(2-hydroxypropan-2-yl)benzamido]-2-methylpiperidin-1-yl]-3-[(1-methyl-1H-pyrazol-4-yl)amino]pyrazine-2-carboxamide]
0.01 to 0.1	≤ 0.01	C[C@@H]1[C@H](NC(=O)c2ccc(C3CC3)cc2)CCCN1c1cnc(C(N)=O)c(Nc2ccc(OC3CCN(C4CCCC4)CC3)cc2)n1 [Example D-101, 3-({4-[(1-cyclopentylpiperidin-4-yl)oxy]phenyl}amino)-5-[(2R,3R)-3-(4-cyclopropylbenzamido)-2-methylpiperidin-1-yl]pyrazine-2-carboxamide]
0.1 to 1	≤ 0.01	C[C@@H]1[C@H](NC(=O)c2ccc(C3CC3)cc2)CCCN1c1cnc(C(N)=O)c(Nc2ccc(N3CCC(C(C)(C)O)CC3)cc2)n1 [Example D-100, 5-[(2R,3R)-3-(4-cyclopropylbenzamido)-2-methylpiperidin-1-yl]-3-({4-[4-(2-hydroxypropan-2-yl)piperidin-1-yl]phenyl}amino)pyrazine-2-carboxamide]
0.1 to 1	0.01 to 0.1	CN(C)c1ccc2c(c1)CCN([C@@H]1CCCN(c3cnc(C(N)=O)c(Nc4cnn(C)c4)n3)C1)C2=O [Example D-156, 5-[(3R)-3-[6-(dimethylamino)-1-oxo-1,2,3,4-tetrahydroisoquinolin-2-yl]piperidin-1-yl]-3-[(1-methyl-1H-pyrazol-4-yl)amino]pyrazine-2-carboxamide]
0.1 to 1	≤ 0.01	C[C@H]1CC[C@@H](NC(=O)c2ccc(C3CC3)cc2)CN1c1cnc(C(N)=O)c(Nc2ccc(N3CCN(C)CC3)c(F)c2)n1 [Example D-150, 5-[(2S,5R)-5-(4-cyclopropylbenzamido)-2-methylpiperidin-1-yl]-3-{[3-fluoro-4-(4-methylpiperazin-1-yl)phenyl]amino}pyrazine-2-carboxamide]
